According to ChEMBL document CHEMBL5131431, “Effect of removal of the 14-hydroxy group on the affinity of the 4,5-epoxymorphinan derivatives for orexin and opioid receptors” (Bioorg Med Chem Lett, 2022):

What was measured:
[1] = target: T1, Orexin/Hypocretin receptor type 1 (Homo sapiens, UniProt O43613); experiment: Binding affinity to OX1R (unknown origin) by calcium assay
T1 sequence (O43613 whole entry): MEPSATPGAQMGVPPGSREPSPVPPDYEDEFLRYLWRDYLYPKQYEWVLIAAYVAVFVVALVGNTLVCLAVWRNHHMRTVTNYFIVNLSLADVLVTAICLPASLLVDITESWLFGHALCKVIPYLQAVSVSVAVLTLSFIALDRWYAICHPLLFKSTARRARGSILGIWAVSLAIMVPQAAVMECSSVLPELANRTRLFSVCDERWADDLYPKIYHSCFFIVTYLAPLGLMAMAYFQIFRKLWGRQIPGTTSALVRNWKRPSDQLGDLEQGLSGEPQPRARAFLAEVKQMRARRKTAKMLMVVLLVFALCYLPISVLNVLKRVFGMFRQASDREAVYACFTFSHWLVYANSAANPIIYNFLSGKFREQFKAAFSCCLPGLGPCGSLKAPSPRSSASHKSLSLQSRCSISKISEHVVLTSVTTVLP

Mu-type opioid receptor = Mu-type opioid receptor (Homo sapiens, UniProt P35372); experiment: Displacement of [3H]DAMGO from human MOR expressed in HEK293 cell membrane; type: cell membranes
[2] = target: Kappa-type opioid receptor (Homo sapiens, UniProt P41145); experiment: Displacement of […] from human KOR expressed in HEK293 cell membrane; type: cell membranes
[3] = target: Delta-type opioid receptor (Homo sapiens, UniProt P41143); experiment: Displacement of […] from human DOR expressed in HEK293 cell membrane; type: cell membranes
Homo sapiens [4] = species: Homo sapiens; experiment: Selectivity index, ratio of Ki for displacement of [3H]DAMGO from human MOR expressed in HEK293 cell membrane to displacement of […] from human KOR expressed in HEK293 cell membrane
Homo sapiens [5] = species: Homo sapiens; experiment: Selectivity index, ratio of Ki for displacement of […] from human DOR expressed in HEK293 cell membrane to displacement of […] from human KOR expressed in HEK293 cell membrane

Sequence of Kappa-type opioid receptor (P41145 whole entry): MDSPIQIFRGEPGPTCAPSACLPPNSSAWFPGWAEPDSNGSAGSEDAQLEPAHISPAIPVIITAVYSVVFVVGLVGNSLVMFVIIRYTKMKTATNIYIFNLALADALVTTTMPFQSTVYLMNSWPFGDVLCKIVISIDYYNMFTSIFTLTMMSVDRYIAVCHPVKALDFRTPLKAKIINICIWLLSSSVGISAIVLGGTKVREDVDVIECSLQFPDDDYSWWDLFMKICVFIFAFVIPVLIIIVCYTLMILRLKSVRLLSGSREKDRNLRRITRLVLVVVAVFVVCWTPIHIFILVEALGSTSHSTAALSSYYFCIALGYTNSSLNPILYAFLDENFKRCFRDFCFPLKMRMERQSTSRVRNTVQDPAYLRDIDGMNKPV
Sequence of Mu-type opioid receptor (P35372 whole entry): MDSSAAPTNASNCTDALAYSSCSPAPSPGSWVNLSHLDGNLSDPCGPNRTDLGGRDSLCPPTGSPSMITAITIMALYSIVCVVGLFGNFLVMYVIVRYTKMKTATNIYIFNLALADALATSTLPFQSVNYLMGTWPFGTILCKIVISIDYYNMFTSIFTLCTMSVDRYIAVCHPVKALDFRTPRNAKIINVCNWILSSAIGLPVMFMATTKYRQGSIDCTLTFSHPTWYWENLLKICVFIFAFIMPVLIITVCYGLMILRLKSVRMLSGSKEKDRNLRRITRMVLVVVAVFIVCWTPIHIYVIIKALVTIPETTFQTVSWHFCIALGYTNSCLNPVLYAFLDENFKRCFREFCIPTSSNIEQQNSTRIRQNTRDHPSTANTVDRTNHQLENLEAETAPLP
Sequence of Delta-type opioid receptor (P41143 whole entry): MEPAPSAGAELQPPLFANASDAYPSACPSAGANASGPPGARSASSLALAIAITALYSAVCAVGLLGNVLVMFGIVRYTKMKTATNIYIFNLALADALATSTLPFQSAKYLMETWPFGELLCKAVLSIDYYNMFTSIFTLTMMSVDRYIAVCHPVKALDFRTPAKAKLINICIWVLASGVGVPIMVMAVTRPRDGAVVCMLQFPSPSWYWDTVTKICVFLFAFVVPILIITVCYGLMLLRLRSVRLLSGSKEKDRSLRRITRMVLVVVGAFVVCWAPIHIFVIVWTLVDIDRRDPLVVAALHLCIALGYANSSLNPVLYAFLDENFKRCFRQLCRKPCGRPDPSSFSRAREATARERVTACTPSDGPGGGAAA

CN(C(=O)/C=C/c1ccoc1)[C@@H]1CC=C2[C@H]3Cc4ccc(O)c5c4[C@@]2(CN3CC2CC2)[C@H]1O5
IC50 [1]: > 10000 nM | Ki (Mu-type opioid receptor): > 10000 nM | Ki [2]: 1410 nM | Ki [3]: > 10000 nM

CN(C(=O)/C=C/c1ccoc1)[C@@H]1CC[C@@]2(O)[C@H]3Cc4ccc(O)c5c4[C@@]2(CCN3CC2CC2)[C@H]1O5 [NALFURAFINE]
Ki (Mu-type opioid receptor): 0.7 nM | Ki [3]: 36.5 nM

COc1ccc2c3c1O[C@H]1[C@H](N(C)C(=O)/C=C/c4ccoc4)CC=C4[C@@H](C2)N(CC2CC2)C[C@]431
IC50 [1]: > 10000 nM

CN(C(=O)/C=C/c1ccoc1)[C@@H]1CCC2[C@H]3Cc4ccc(O)c5c4[C@@]2(CCN3CC2CC2)[C@H]1O5 (some centres undefined)
Ki [1]: 218 nM | Ki (Mu-type opioid receptor): 0.158 nM | Ki [2]: 0.0272 nM | Ki [3]: 9.76 nM | Ratio Ki (Homo sapiens [4]): 5.8 | Ratio Ki (Homo sapiens [5]): 359

COc1ccc2c3c1O[C@H]1[C@H](N(C)C(=O)/C=C/c4ccoc4)CC=C4[C@@H](C2)N(CC2CC2)CC[C@]431
Ki [1]: 19 nM

COc1ccc2c3c1O[C@H]1[C@H](N(C)C(=O)/C=C/c4ccoc4)CCC4[C@@H](C2)N(CC2CC2)C[C@@]341 (some centres undefined)
IC50 [1]: > 10000 nM

CN(C(=O)/C=C/c1ccoc1)[C@@H]1CC=C2[C@H]3Cc4ccc(O)c5c4[C@@]2(CCN3CC2CC2)[C@H]1O5
Ki [1]: 30.5 nM | Ki (Mu-type opioid receptor): 3.57 nM | Ki [2]: 0.0356 nM | Ki [3]: 26.3 nM | Ratio Ki (Homo sapiens [4]): 100 | Ratio Ki (Homo sapiens [5]): 739

COc1ccc2c3c1O[C@H]1[C@H](N(C)C(=O)/C=C/c4ccoc4)CCC4[C@@H](C2)N(CC2CC2)CC[C@@]341 (some centres undefined)
Ki [1]: 28.7 nM

CN(C(=O)/C=C/c1ccoc1)[C@@H]1CC[C@@]2(O)[C@H]3Cc4ccc(O)c5c4[C@@]2(CN3CC2CC2)[C@H]1O5
Ki (Mu-type opioid receptor): > 5000 nM | Ki [2]: > 5000 nM | Ki [3]: > 5000 nM

CN(C(=O)/C=C/c1ccoc1)[C@@H]1CCC2[C@H]3Cc4ccc(O)c5c4[C@@]2(CN3CC2CC2)[C@H]1O5 (some centres undefined)
IC50 [1]: > 10000 nM | Ki (Mu-type opioid receptor): > 10000 nM | Ki [2]: 283 nM | Ki [3]: > 10000 nM
